In patent US20190329063A1, “METHOD FOR MODIFYING THE T[…] OF DRUGS” (priority 2016, published 2019):

Experiments:
[1] = test system: subjects medicated with MPH; experiment: Conjunctive continuous performance task (CPT) after half dose MPH with cognitive induction or music control; assay type: in vivo, human; conditions: half dose MPH PO
From the text: Reference is now made to FIGS. 7A-7B, depicting validation experiments for testing whether FPC improves attention functions of subjects medicated with MPH, according to some embodiments of the invention. In some embodiments, the experiment includes three sessions. In some embodiments, in the first session 702, the subjects performed a conjunctive continuous performance task (CPT, Shalev et al., 2011). In some embodiments, this test yields measures of sustained attention, which are generalized across different sensory modalities.
According to some embodiments, in the second and the third sessions 706, the subjects took half of their prescribed drug 708 dose by per os (PO) administration. In some embodiments, in the first epoch they went through either a cognitive induction condition 714 during which they performed the NeuroTrax tasks or a control condition 712 during which they listened to a piece of their favorite music. In some embodiments, these 30 min conditions were followed by a 20-minutes rest epoch 716, for example to allow for the testing of an enduring effect of the FPC. […]
According to some exemplary embodiments, FPC effect was measured for the sustained attention measures of average 722 and standard deviation 724 response time, which show high reliability and validity (Shalev et al., 2011). […]

[2] = test system: ADHD patients; experiment: Real-time fMRI neurofeedback of right-IFG after Ritalin IR with CPTi, CPT and Strooplike tasks; assay type: in vivo, human; conditions: 0.1-0.2 mg/kg Ritalin IR; right-IFG Up vs Down regulation; 24 ADHD patients
[3] = after administration of Ritalin IR; cited from earlier work

Structure (SMILES): COC(=O)C(c1ccccc1)C1CCCCN1 (stereo not shown) [MPH, Methylphenidate]
- improvement of sustained attention measures, cognitive induction task relative to control task (music) ([1]; two subjects): higher
- sustained attention measures of average and standard deviation response time (CPT) ([1]; two subjects (males)): improved
- effects on sustained attention (CPT task) and response inhibition (CPTi task) following the up regulation condition [2]: substantially larger effects
- estimated peak concentration of MPH in brain blood plasma (time) [3]: 45 min
